Results: patent US10350147B2, “Enamel products and methods of use” (The Research Foundation for The State University of New York, priority 2014, dated 2019)
Entries after “also recorded” stand apart in the source; their conditions may differ.

Legend:
[1] = test system: oral epithelial keratinocytes of the cell line IMOK; experiment: Immunocytochemistry of marker expression in treated IMOK oral epithelial keratinocytes; assay type: cell-based, mouse
Method: In the studies described below, the ameloblast-like cells originated from oral epithelial keratinocytes. We employed the cell line IMOK, an immortalized oral keratinocyte cell line of mouse origin, which was a gift from Dr. Garrett-Sinha (SUNY-Buffalo; Parikh et al., Arc. Oral Biol. 53:1091-1100, 2008).
To thaw frozen IMOK cells, we removed a cryovial containing 10^6 frozen cells from liquid nitrogen storage, immediately placed it into a 37° C. water bath, and gently swirled the vial. When the cells were thawed, we transferred the vial into a laminar flow hood, and added 10 ml of pre-warmed serum free CnT-02 growth medium (CELLNTEC; FPS 1:1000 added to the medium). We centrifuged the cell suspension (˜1000 rpm for 4 minutes) then checked the vial visually for the presence of a complete pellet. The supernatant was aseptically decanted without disturbing the cell pellet, which we gently resuspended in 7 ml of CnT-02 medium. We transferred the resuspended cells into a T25 flask and incubated it at 37° C. with a humidified atmosphere of 5% CO2 The medium was changed every other day, and when the cells became 90% confluent, we split them 1:5 and plated them in a 12-well plate as follows. After discarding the culture medium from the flask, we washed the cells with PBS then added 2 mL of a pre-warmed dissociation reagent (TrypLE; GIBCO), gently shaking the flask to completely cover the cell layer. We transferred the flask to the incubator (37° C., 5% CO2) for 20 minutes, checking under a microscope every 5 minutes for dissociation of the cells. When ≥90% of the cells detached, we added 8 ml of pre-warmed CnT-02 growth medium (CELLNTEC), dispersing it with a pipette over the cell layer surface several times. The cell suspension was transferred to a 50 ml conical tubed and centrifuged (1000 rpm for 4 minutes). We resuspended the cell pellet in 5 ml of pre-warmed serum free CnT-02 growth medium (CELLNTEC) and split the cells in 1:5 ratios. We diluted the cell suspension plate and pipetted the appropriate volume into new 12-well plates, returning the cells to the incubator (37° C., 5% CO2).
We added the vehicle (4 mM HCl+1 mg/mL BSA) to the control side and TGFβ1 (5 ng/mL) to the experimental side and mixed gently. We changed the medium every other day for 10 days. To fix the cells, we aspirated the medium, washed the cells with PBS then fixed them with 100% methanol for 20 minutes. Following fixation, we washed the fixed cells with PBS (×3) and stored them at 4° C.
Immunocytochemistry General Protocol: (1) wash sample slide in 0.15 M PBS (pH 7.2; 4×5 minutes); (2) incubate in 4% Normal Goat Serum (NGS) for 20 minutes (2 ml of 0.15 M PBS+80 μL NGS); (3) incubate with the primary antibody solution (details below; 90 minutes); (4) wash with […] (3 times×10 minutes); (5) block with 4% NGS in 0.15 M PBS (20 minutes); (6) incubate with the secondary antibody (Biotin-SP-conjugated goat anti-rabbit IgG; 60 minutes); (7) wash with 0.15 M PBS (3 times×10 minutes); (8) prepare and incubate in ABC solution (details below; 60 minutes (5 mL of 0.15 M PBS+ABC solution 600 μL); (9) wash with 0.1 M AI buffer (175 mM sodium acetate and 10 mM imidazole, pH 7.2) for 3 times×10 minutes [14.35 g sodium acetate, 0.68 g imidazole in 1000 mL H2O]; (10) carry out DAB reaction for 5-20 minutes, checking often; and (11) wash for 15 minutes in 0.05 M PBS with 0.04% TritonX-100 to stop the reaction.
The primary antibody solution contains 0.15 M PBS with 0.5% Triton X-100; 4% NGS in [0.15 M PBS with 0.5% TritonX-100; and the primary antibody at a 1:500 dilution (2 mL PBS+0.04% Tx 100+80 μL NGS+4 μL primary antibody). The secondary antibody solution contains 0.15 M PBS with 0.5% Triton X-100 and the secondary antibody at a 1:2500 dilution (Goat anti Rabbit IgG) [2 ml PBS+0.04% Tx 100+0.8 uL GαR]. To prepare the ABC (Avidin Biotin Complex) solution, add 1 drop of A, 1 drop of B, to 500 μL of 0.15 M PBS in an Eppendrof tube. […]

developing tooth buds = details: serotonin added to organotypic cultures; reversed with antagonists; cited from earlier work
[2] = IMOK cells before and after TGFβ1 treatment
[3] = IMOK cells, TGFβ1 5 ng/ml, 10 days, immunocytochemistry

Row | Molecule | amelogenin induction at 10 μM serotonin ([1]; 10 μM serotonin for 10 days) | amelogenin expression after serotonin treatment ([1]; IMOK cells pre-treated with TGFβ1, then further treated with serotonin) | effect on tooth development (developing tooth buds) | Oct4 expression [1, 2] | collagen1 expression [1, 2] | amelogenin expression after TGFβ1 treatment alone ([1]; IMOK cells before and after TGFβ1 treatment, no serotonin) | E-cadherin expression [1, 3] | N-cadherin expression [1, 3] | cell morphology after treatment ([1]; IMOK cells, TGFβ1 treatment versus confluent control)
1 | NCCc1c[nH]c2ccc(O)cc12 [serotonin, reference compound] | induction of amelogenin | induction of amelogenin expression; also recorded: express amelogenin | accelerated tooth development | – | – | – | – | – | –
2 | TGFβ1: recombinant human transforming growth factor β1 (R&D system) used as dedifferentiation agent | – | – | – | acquire the expression of Oct4 | lose the expression of collagen1 | do not express amelogenin | lost and reduction in E-cadherin expression and loss of E-cadherin expression | gained; also recorded: increase in N-cadherin expression; also recorded: induced | cells enlarge in size, separate and spread out
